This experiment deals with MM.1S multiple myeloma cells. Briefly: Disseminated MM.1S multiple myeloma model in NSG mice. In kind it is in vivo. The source says: Female NOD severe combined immune deficient (SCID) gamma (NSG) mice 8-9 weeks of age were inoculated with 5×10^6 multiple myeloma MM.1S cells into the tail vein. Randomization by body weight and start of treatment was initiated 7 days post tumor inoculation. The treatment groups are outlined in Table 10. […] Groups 1-10 (n=6/group) were monitored for survival endpoint characterized by >20% body weight loss and clinical signs including lethargy, hind limb paralysis or moribundity. Groups 11-20 (n=3/group) were used for bone marrow harvest and analysis of tumor burden on day 28 post tumor cell inoculation. For all groups, body weights were monitored 1-2×/week.
Tumor burden was assessed and quantified by detection of hCD138 positive (hCD138+) cells in the bone marrow. Bone marrow cells from mouse femur and tibia were pooled and assessed for human CD138+ expression using the Alexa Fluor 647 mouse anti-human CD138 clone MI15 (BD Biosciences #562097) according to the manufacturer's protocol. […] Data was analyzed using Flowjo (Tree Star, Inc., Ashland, Oreg.).
Female NOD severe combined immune deficient (SCID) gamma (NSG) mice 9-12 weeks of age were inoculated with 5×10^6 multiple myeloma MM.1S cells into the tail vein. […] Body weights were monitored 1-2×/week. […]

Here are results for two compounds from patent US20220323599A1, “ANTI-BCMA ANTIBODY CONJUGATE, COMPOSITIONS COMPRISING THE SAME, AND METHODS OF MAKING AND USING THE SAME” (CELGENE CORPORATION, priority 2019, published 2022).

As to `CC(C)C[C@H](NC(=O)[C@H](Cc1ccccc1)NC(=O)c1cnccn1)B(O)O` [Velcade, bortezomib], the mean survival (Example 9, 0.8 mg/kg Velcade q7dx2 IP, vehicle 30.6 days) is on record as 40.6 days.

For the compound “Daratumumab: MM standard of care agent, clinical grade Daratumumab”, the “effect on survival compared to vehicle control” value (Example 9, single agent at 3 or 10 mg/kg, single IP) is recorded as “no significant effect on survival compared to vehicle control”.
